Data from US20250257041A1, “INDUCERS OF INTEGRATED STRESS RESPONSE TO TREAT CANCER” (The Board of Regents of The University of Texas System, priority 2022, published 2025).
Where two headings read alike, the source gives them in different places.

How the values were obtained:
HCT116 WT = experiment: Proliferation of HCT116 colorectal cell line, Cell TiterGlo; format: cell-based, human
Procedure, shortened: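 Cell viability by CellTiter-Glo in parental HCT116, in a GCN2-knockout line, and in parental cells co-treated with ISRIB. IC50 from triplicate 10-point titrations; repeated values come from separate runs.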

HCT116 GCN2KO = experiment: Proliferation of HCT116 cells with GCN2 knocked out (CRISPR), Cell TiterGlo; format: cell-based, human; settings: Homo sapiens, HCT-116; HCT116 cells with GCN2 knocked out using CRISPR; read-out: HCT116 IC50 (uM) HCT116 − GCN2KO
Method: Briefly, compounds were tested for their effect on proliferation of HCT116 colorectal cell lines using Cell TiterGlo (Promega). Each compound was tested in a 10-point dose response experiment in triplicate. Multiple values in the column titled HCT116 WT reflect separate independent experiments. The three columns titled “HCT116 WT (repeat)”, “HCT116-CGN2KO” and “HCT116 WT+ISRIB” provide data for selected compounds that were tested simultaneously under three conditions. The HCT116 WT column lists IC50 against the wild type HCT116 colorectal cancer cell line. The HCT116-CGN2KO lists IC50 data for cells in which one component of the integrated stress response, GCN2, has been knocked out using CRISPR technology.

[1] = Homo sapiens, HCT-116, wild type HCT116, 10-point dose response in triplicate, multiple values = separate independent experiments, read-out: HCT116 IC50 (uM) HCT116 WT
[2] = Homo sapiens, HCT-116, wild type HCT116, tested simultaneously with GCN2KO and +ISRIB, read-out: HCT116 IC50 (uM) HCT116 WT (repeat)
[3] = wild type HCT116, compound plus 10 nM of ISRIB, read-out: HCT116 IC50 (uM) HCT116 WT + ISRIB

| SMILES | IC50 (HCT116 WT; [1]) | IC50 (HCT116 WT; [2]) | IC50 (HCT116 WT; [3]) | IC50 (HCT116 GCN2KO) | HCT116 IC50 (uM) HCT116 WT (HCT116 WT; wild type HCT116, 10-point dose response in triplicate, multiple values = separate independent experiments) | IC50 (HCT116 WT; Homo sapiens, HCT-116, read-out: HCT116 IC50 (uM) HCT116 WT) |
| --- | --- | --- | --- | --- | --- | --- |
| Cn1nc(-c2ccc(NC(=O)c3cccc(C#N)c3)cc2)cc1NC(=O)c1ccccc1 [SW393069, N-(4-(5-benzamido-1-methyl-1H-pyrazol-3-yl)phenyl)-3-cyanobenzamide] | 17 µM | 7.43 µM | 12.7 µM | 15.2 µM | – | – |
| C#Cc1ccc(C(=O)Nc2cc(-c3ccc(NC(=O)c4ccccc4)cc3)nn2C)cc1 [SW389008, N-(3-(4-Benzamidophenyl)-1-methyl-1H-pyrazol-5-yl)-4-ethynylbenzamide] | > 50 µM | ≥ 50 µM | – | ≥ 50 µM | – | – |
| Cn1nc(-c2ccc(NS(=O)(=O)c3ccccc3)cc2)cc1NC(=O)c1ccccc1 [SW393070, N-(1-methyl-3-(4-(phenylsulfonamido)phenyl)-1H-pyrazol-5-yl)benzamide] | 16 µM | 9.06 µM | 23.3 µM | 22 µM | – | – |
| Cn1nc(-c2ccc(NC(=O)c3ccccn3)cc2)cc1NC(=O)c1ccccc1 [SW393126, N-(4-(5-benzamido-1-methyl-1H-pyrazol-3-yl)phenyl)picolinamide] | 3.32 µM | 7.17 µM | 25.8 µM | 32.9 µM | – | – |
| C#CCN(C(=O)c1ccccc1Cl)c1ccc(-c2cc(NC(=O)c3cccc(C4(C(F)(F)F)N=N4)c3)n(C)n2)cc1 [SW393173, 2-Chloro-N-(4-(1-methyl-5-(3-(3-(trifluoromethyl)-3H-diazirin-3-yl)benzamido)-1H-pyrazol-3-yl)phenyl)-N-(prop-2-yn-1-yl)benzamide] | 2.4 µM | 4 µM | 3.11 µM | 2.9 µM | – | – |
| CSc1ccccc1C(=O)Nc1ccc(-c2cc(NC(=O)c3ccccc3)n(C)n2)cc1 [SW393169, N-(4-(5-benzamido-1-methyl-1H-pyrazol-3-yl)phenyl)-2-(methylthio)benzamide] | 0.01 µM | 0.06 µM | 0.49 µM | 0.41 µM | – | – |
| C#CCOc1ccc(C(=O)c2cccc(C(=O)Nc3cc(-c4ccc(NC(=O)c5ccccc5Cl)cc4)nn3C)c2)cc1 [SW393141, 2-Chloro-N-(4-(1-methyl-5-(3-(4-(prop-2-yn-1-yloxy)benzoyl)benzamido)-1H-pyrazol-3-yl)phenyl)benzamide] | 0.12 µM | 0.3 µM | 0.41 µM | 0.49 µM | – | – |
| Cn1nc(-c2ccc(NC(=O)c3cccnc3)cc2)cc1NC(=O)c1ccccc1 [SW393127, N-(4-(5-benzamido-1-methyl-1H-pyrazol-3-yl)phenyl)nicotinamide] | 0.5 µM | 1.46 µM | 7.5 µM | 6.64 µM | – | – |
| C#Cc1ccc(C(=O)Nc2ccc(-c3cc(NC(=O)c4ccccc4)n(C)n3)cc2)cc1 [SW389007, N-(4-(5-Benzamido-1-methyl-1H-pyrazol-3-yl)phenyl)-4-ethynylbenzamide] | 2 µM | 4.8 µM | 4.42 µM | 5.22 µM | – | – |
| Cn1nc(-c2ccc(NC(=O)c3c(Cl)cccc3Cl)cc2)cc1NC(=O)c1ccccc1 [SW393144, N-(4-(5-benzamido-1-methyl-1H-pyrazol-3-yl)phenyl)-2,6-dichlorobenzamide] | 0.13 µM | 0.43 µM | 2.55 µM | 2.31 µM | – | – |
| Cn1nc(-c2ccc(NC(=O)c3ccc(C#N)cc3)cc2)cc1NC(=O)c1ccccc1 [SW393061, N-(4-(5-benzamido-1-methyl-1H-pyrazol-3-yl)phenyl)-4-cyanobenzamide] | – | ≥ 50 µM | – | ≥ 50 µM | inactive | – |
| Cn1nc(-c2ccc(NC(=O)c3ccccc3)cc2)cc1NC(=O)c1cccc(F)c1 [SW389159, N-(3-(4-Benzamidophenyl)-1-methyl-1H-pyrazol-5-yl)-3-fluorobenzamide] | 0.788 µM | 0.38 µM | 2.59 µM | 2.54 µM | – | – |
| Cn1nc(-c2ccc(NC(=O)c3ccccc3)cc2)cc1NC(=O)c1cccc(C#N)c1 [SW389158, N-(3-(4-Benzamidophenyl)-1-methyl-1H-pyrazol-5-yl)-3-cyanobenzamide] | 0.561 µM | 0.39 µM | 3.01 µM | 2.96 µM | – | – |
| Cc1ccccc1C(=O)Nc1ccc(-c2cc(NC(=O)c3ccccc3)n(C)n2)cc1 [SW393134, N-(4-(5-benzamido-1-methyl-1H-pyrazol-3-yl)phenyl)-2-methylbenzamide] | 0.012 µM | 0.02 µM | 0.19 µM | 0.17 µM | – | – |
| Cn1nc(-c2ccc(NC(=O)c3ccccc3[N+](=O)[O-])cc2)cc1NC(=O)c1ccccc1 [SW393143, N-(4-(5-benzamido-1-methyl-1H-pyrazol-3-yl)phenyl)-2-nitrobenzamide] | 0.01 µM | 0.02 µM | 0.14 µM | 0.12 µM | – | – |
| COC(=O)c1ccc(C(=O)Nc2cc(-c3ccc(NC(=O)c4ccccc4)cc3)nn2C)cc1 [SW393130, methyl 4-((3-(4-benzamidophenyl)-1-methyl-1H-pyrazol-5-yl)carbamoyl)benzoate] | 0.92 µM | 1.87 µM | – | ≥ 50 µM | – | – |
| C#CCOc1cccc(C(=O)Nc2ccc(-c3cc(NC(=O)c4ccc(N=[N+]=[N-])cc4)n(C)n3)cc2)c1 [SW393065, N-(4-(5-(4-Azidobenzamido)-1-methyl-1H-pyrazol-3-yl)phenyl)-3-(prop-2-yn-1-yloxy)benza-mide] | 3 µM | 3.73 µM | 3.26 µM | 3.23 µM | – | – |
| Cn1nc(-c2ccc(NC(=O)c3ccccc3Cl)cc2)cc1NC(=O)c1cccc(C2(C(F)(F)F)N=N2)c1 [SW393172, 2-Chloro-N-(4-(1-methyl-5-(3-(3-(trifluoromethyl)-3H-diazirin-3-yl)benzamido)-1H-pyrazol-3-yl)phenyl)benzamide] | 3.6 µM | 5.08 µM | 5.25 µM | 4.37 µM | – | – |
| Cc1ncccc1C(=O)Nc1ccc(-c2cc(NC(=O)C3CCC(F)(F)CC3)n(C)n2)cc1F [SW394744, N-(4-(5-(4,4-Difluorocyclohexane-1-carboxamido)-1-methyl-1H-pyrazol-3-yl)-2-fluorophen-yl)-2-methylnicotinamide] | > 50 µM | – | – | – | – | – |
| Cn1nc(-c2ccc(NC(=O)C3CCOCC3)cc2)cc1NC(=O)c1ccccc1 [SW394517, N-(4-(5-Benzamido-1-methyl-1H-pyrazol-3-yl)phenyl)tetrahydro-2H-pyran-4-carboxamide] | 0.32 µM | – | – | – | – | – |
| Cn1nc(-c2ccc(NC(=O)c3ccccc3COCCNC(=O)CCCC[C@H]3SC[C@H]4NC(=O)N[C@H]43)cc2)cc1NC(=O)c1ccccc1 [SW394656, N-(4-(5-benzamido-1-methyl-1H-pyrazol-3-yl)phenyl)-2-((2-(5-((3aR,4R,6aS)-2-oxohexahydro-1H-thieno[3,4-d]imidazol-4-yl)pentanamido)ethoxy)methyl)benzamide] | 0.071 µM | – | – | – | – | – |
| Cn1nc(-c2ccc(NC(=O)c3ccccc3COCc3cn(CCOCCNC(=S)Nc4ccc(-c5c6ccc(=O)cc-6oc6cc(O)ccc56)c(C(=O)O)c4)nn3)cc2)cc1NC(=O)c1ccccc1 [SW393345, 5-(3-(2-(2-(4-(((2-((4-(5-benzamido-1-methyl-1H-pyrazol-3-yl)phenyl)carbamoyl)benzyl)oxy)methyl)-1H-1,2,3-triazol-1-yl)ethoxy)ethyl)thioureido)-2-(6-hydroxy-3-oxo-3H-xanthen-9-yl)benzoic acid] | 11.4 µM | – | – | – | – | – |
| Cn1nc(-c2ccc(NC(=O)C3CCCO3)cc2)cc1NC(=O)c1ccccc1 (single isomer, unassigned) [SW394516 (isomer 2)] | 0.77 µM | – | – | – | – | – |
| Cn1nc(-c2ccc(NC(=O)c3ccccc3Cl)cc2)cc1NC(=O)C1CC2CCC1CC2 (stereo not shown) [SW394969, N-(3-(4-(2-chlorobenzamido)phenyl)-1-methyl-1H-pyrazol-5-yl)bicyclo[2.2.2]octane-2-carboxamide] | 0.03 µM | – | – | – | – | – |
| Cc1ccccc1C(=O)Nc1cc(-c2ccc(NC(=O)c3ccccc3Cl)cc2)nn1C [SW393217, 2-chloro-N-(4-(1-methyl-5-(2-methylbenzamido)-1H-pyrazol-3-yl)phenyl)benzamide] | 0.03 µM | – | – | – | – | – |
| Cn1nc(-c2ccc(NC(=O)c3ccccc3COCCN=[N+]=[N-])cc2)cc1NC(=O)c1cccc(C2(C(F)(F)F)N=N2)c1 [SW394739, 2-((2-azidoethoxy)methyl)-N-(4-(1-methyl-5-(3-(3-(trifluoromethyl)-3H-diazirin-3-yl)benzamido)-1H-pyrazol-3-yl)phenyl)benzamide] | – | – | – | – | – | 0.4 µM |
| C#Cc1cccc(C(=O)Nc2cc(-c3ccc(NC(=O)c4ccc(C5(C(F)(F)F)N=N5)cc4)cc3)nn2C)c1 [SW393242, 3-Ethynyl-N-(1-methyl-3-(4-(4-(3-(trifluoromethyl)-3H-diazirin-3-yl)benzamido)phenyl)-1H-pyrazol-5-yl)benzamide] | 1.35 µM | – | – | – | – | – |
| C#Cc1cccc(C(=O)Nc2cc(-c3ccc(NC(=O)c4ccccc4-c4ccc(N=[N+]=[N-])cc4)cc3)nn2C)c1 [SW394549, 4′-Azido-N-(4-(5-(3-ethynylbenzamido)-1-methyl-1H-pyrazol-3-yl)phe-nyl)[1,1′-biphenyl]-2-carboxamide] | 4.1 µM | – | – | – | – | – |
